These results are taken from patent US5919769A, “Fucose derivatives, drugs containing the same as active ingredient, and intermediates for producing the same” (Kanebo, Ltd, priority 1995, dated 1999).

What is called IC50 is the concentration that gives 50% inhibition.

Structures can show the parent of a compound that is named as a salt.

One assay concerns the target L-selectin. Kind of assay: Inhibitory test on the binding of L-selectin to sialyl Le^X (selectin-IgG chimera). Particulars: inhibition of L-selectin IgG chimera binding to sialyl Le^X-pentaceramide. The procedure: (§1) The experiment was carried out according to the method using selectin-IgG chimera, which was reported by Foxall, C. et al. (J. Cell Biol., 117, 895-902 (1992)).
(§2) Sialyl Le^X -pentaceramide was dissolved in 50% methanol in distilled water, and the solution was put into a 96-well plate in an amount of 100 pmol/well. The plate was allowed to stand at room temperature overnight, and the solvent therein was evaporated. The plate was washed with distilled water, and subjected to blocking with 50 mM imidazole buffer (pH 7.2) containing 5% BSA (bovine serum albumin) and 1 mM calcium chloride at room temperature for one hour.
(§3) Separately, to 500-fold diluted solution of each biotinylated anti-human IgG Fc and streptavidin-alkaline phosphatase conjugate with a 50 mM imidazole buffer (pH 7.2) containing 1% BSA and 1 mM calcium chloride, P-selectin IgG chimera was added to give a final concentration of 40 μg/ml, and the mixture was incubated at room temperature for 30 minutes to give the complex solution.
(§4) A test compound was dissolved in DMSO (except that the test compound h was dissolved in distilled water) to give 10 mM aqueous solution thereof, which was serially diluted with 50 mM imidazole buffer (pH 7.2) containing 1% BSA and 1 mM calcium chloride to give the solutions in 8 various concentrations (two-fold serial dilution from 20 μM). The test compound solution in each concentration and the above complex solution were mixed in equal volume, and the mixture was incubated at room temperature for 30 minutes to give the reaction solution.
(§5) After the blocking was completed, the blocking solution in the above plate was discarded, and the plate was washed with 50 mM imidazole buffer (pH 7.2), and thereto was added the above reaction solution in an amount of 50 μl/well. The plate was incubated at 37° C. for 45 minutes, and then washed three times with 50 mM imidazole buffer (pH 7.2) and washed three times with distilled water. 1M diethanolamine (pH 9.8) containing 0.01% magnesium chloride and 1 mg/ml p-nitrophenyl phosphate was put into each well in an amount of 50 μl/well, and the plate was allowed to stand for 1 to 2 hours for color development. The absorbance at 405 nm was measured, and the binding rate (%) was calculated by the following equation, based on the absorbance (X) of the wells containing a test compound at various concentrations and the absorbance (A) of the wells containing no test compound.
(§6) IC50 was evaluated by probit method from the binding rate.
Inhibitory test on the binding of L-selectin to sialyl Le^X :
The same procedures of Experiment 1 were repeated except that L-selectin IgG chimera (40 μg/ml) was used instead of P-selectin IgG chimera (40 μg/ml).

Another assay concerns the target P-selectin. Briefly: Inhibitory test on the binding of P-selectin to sialyl Le^X (selectin-IgG chimera). Particulars: inhibition of P-selectin IgG chimera binding to sialyl Le^X-pentaceramide. Here is the method: Inhibitory test on the binding of P-selectin to sialyl Le^X :
as §1, §2, §3, §4, §5, §6

Take `CCCCCCCCCCCCCCC(CCCCCCCCCCCCCC)C(=O)N[C@@H](CO[C@@H]1O[C@H]([C@H](C)O)[C@@H](O)[C@@H]1O)C(=O)N[C@H](CCC(=O)O)C(=O)NC` [compound h, [N-(2-tetradecylhexadecanoyl)-O-(α-L-fucofuranosyl)-L-seryl]-D-glutamic acid 1-methylamide sodium salt]: the IC50 is 300 nM on L-selectin (sodium salt) and 1200 nM at P-selectin (sodium salt).

Consider `CCCCCCCCCCCCCCC(CCCCCCCCCCCCCC)C(=O)N[C@H](CS[C@@H]1O[C@@H](C)[C@@H](O)[C@@H](O)[C@@H]1O)C(=O)N[C@H](CCC(=O)O)C(=O)NC` [compound t, [N-(2-tetradecylhexadecanoyl)-S-(α-L-fucopyranosyl)-D-cysteinyl]-D-glutamic acid 1-methylamide], for which the IC50 at L-selectin amounted to 600 nM; at P-selectin, 300 nM.

In the case of `CCCCCCCCCCCCCCC(CCCCCCCCCCCCCC)C(=O)N[C@@H](CO[C@@H]1O[C@H]([C@H](C)O)[C@@H](O)[C@@H]1O)C(=O)N[C@H](CCC(=O)O)C(=O)Nc1ccccc1` [compound g, [N-(2-tetradecylhexadecanoyl)-O-(α-L-fucofuranosyl)-L-seryl]-D-glutamic acid 1-anilide], the IC50 at L-selectin was determined as 1700 nM; on P-selectin it was 100 nM.

In the case of `CC(=O)N[C@H]1[C@H]([C@H](O)[C@H](O)CO)O[C@@](O[C@H]2[C@@H](O)[C@@H](CO)O[C@@H](O[C@@H]([C@H](O[C@@H]3O[C@@H](C)[C@@H](O)[C@@H](O)[C@@H]3O)[C@H](C=O)NC(C)=O)[C@H](O)CO)[C@@H]2O)(C(=O)O)C[C@@H]1O` [compound X, Sialyl Le^X, reference compound], the IC50 on L-selectin and at P-selectin was > 500000 nM each time.

Take `CCCCCCCCCCCCCCC(CCCCCCCCCCCCCC)C(=O)N[C@@H](CO[C@@H]1O[C@H]([C@H](C)O)[C@@H](O)[C@@H]1O)C(=O)N[C@H](CCC(=O)O)C(=O)NC` [compound b, [N-(2-tetradecylhexadecanoyl)-O-(α-L-fucofuranosyl)-L-seryl]-D-glutamic acid 1-methylamide]: the IC50 at L-selectin is 1500 nM; on P-selectin it was 1000 nM.

On to `CCCCCCCCCCCCCCC(CCCCCCCCCCCCCC)C(=O)N[C@H](CO[C@H]1O[C@@H](C)[C@@H](O)[C@@H](O)[C@@H]1O)C(=O)N[C@H](CCC(=O)O)C(=O)NC` [compound p, [N-(2-tetradecylhexadecanoyl)-O-(β-L-fucopyranosyl)-D-seryl]-D-glutamic acid 1-methylamide], for which the IC50 at L-selectin was 700 nM; at P-selectin it was 300 nM.

Consider `CCCCCCCCCCCCCCC(CCCCCCCCCCCCCC)C(=O)N[C@H](CO[C@@H]1O[C@@H](C)[C@@H](O)[C@@H](O)[C@@H]1O)C(=O)N[C@H](CCC(=O)O)C(=O)NC` [compound l, [N-(2-tetradecylhexadecanoyl)-O-(α-L-fucopyranosyl)-D-seryl]-D-glutamic acid 1-methylamide], for which the IC50 at L-selectin amounted to 18000 nM; on P-selectin, 2100 nM.

With `CCCCCCCCCCCCCCC(CCCCCCCCCCCCCC)C(=O)N[C@@H](CO[C@@H]1O[C@H]([C@H](C)O)[C@@H](O)[C@@H]1O)C(=O)N[C@@H](CCC(=O)O)C(=O)NC` [compound a, [N-(2-tetradecylhexadecanoyl)-O-(α-L-fucofuranosyl)-L-seryl]-L-glutamic acid 1-methylamide], the IC50 on L-selectin came out at 2200 nM; at P-selectin it was 1300 nM.

As for `CCCCCCCCCCCCCCC(CCCCCCCCCCCCCC)C(=O)N[C@@H](CS[C@@H]1O[C@@H](C)[C@@H](O)[C@@H](O)[C@@H]1O)C(=O)N[C@@H](CCC(=O)O)C(=O)NC` [compound q, [N-(2-tetradecylhexadecanoyl)-S-(α-L-fucopyranosyl)-L-cysteinyl]-L-glutamic acid 1-methylamide], the IC50 is 200 nM at L-selectin and 100 nM on P-selectin.
